Test results published in the NIST ThermoML archive (doi:10.1016/j.tca.2006.05.016).
Numbers after ± are expanded uncertainties.

Key:
[1] = molar heat capacity at constant pressure; settings: 101.33 kPa, Vacuum adiabatic calorimetry
[2] = Molar enthalpy of transition or fusion; settings: Crystal 2; Adiabatic calorimetry
[3] = Crystal 2; Adiabatic calorimetry

O.O=C([O-])[C@H](O)[C@@H](O)CO.[Na+] [sodium (2R,3S)-2,3,4-trihydroxybutanoate hydrate]
molar heat capacity at constant pressure ([1]; 77.95 K, Crystal 2): 75 ± 0.26 J/K/mol
molar heat capacity at constant pressure ([1]; 79.37 K, Crystal 2): 76.72 ± 0.27 J/K/mol
molar heat capacity at constant pressure ([1]; 81.36 K, Crystal 2): 79.56 ± 0.28 J/K/mol
molar heat capacity at constant pressure ([1]; 83.91 K, Crystal 2): 84.79 ± 0.3 J/K/mol
molar heat capacity at constant pressure ([1]; 86.36 K, Crystal 2): 87.68 ± 0.3 J/K/mol
molar heat capacity at constant pressure ([1]; 88.76 K, Crystal 2): 90.45 ± 0.31 J/K/mol
molar heat capacity at constant pressure ([1]; 91.09 K, Crystal 2): 93.27 ± 0.35 J/K/mol
molar heat capacity at constant pressure ([1]; 93.36 K, Crystal 2): 96.08 ± 0.36 J/K/mol
molar heat capacity at constant pressure ([1]; 95.59 K, Crystal 2): 98.2 ± 0.36 J/K/mol
molar heat capacity at constant pressure ([1]; 97.78 K, Crystal 2): 100.57 ± 0.37 J/K/mol
molar heat capacity at constant pressure ([1]; 99.92 K, Crystal 2): 102.71 ± 0.38 J/K/mol
molar heat capacity at constant pressure ([1]; 102.04 K, Crystal 2): 105.14 ± 0.38 J/K/mol
molar heat capacity at constant pressure ([1]; 104.12 K, Crystal 2): 107.69 ± 0.39 J/K/mol
molar heat capacity at constant pressure ([1]; 106.16 K, Crystal 2): 109.95 ± 0.4 J/K/mol
molar heat capacity at constant pressure ([1]; 108.18 K, Crystal 2): 111.9 ± 0.4 J/K/mol
molar heat capacity at constant pressure ([1]; 110.17 K, Crystal 2): 113.31 ± 0.41 J/K/mol
molar heat capacity at constant pressure ([1]; 112.13 K, Crystal 2): 114.95 ± 0.41 J/K/mol
molar heat capacity at constant pressure ([1]; 114.07 K, Crystal 2): 116.19 ± 0.41 J/K/mol
molar heat capacity at constant pressure ([1]; 115.97 K, Crystal 2): 117.54 ± 0.42 J/K/mol
molar heat capacity at constant pressure ([1]; 117.86 K, Crystal 2): 118.71 ± 0.42 J/K/mol
molar heat capacity at constant pressure ([1]; 119.77 K, Crystal 2): 120.32 ± 0.43 J/K/mol
molar heat capacity at constant pressure ([1]; 121.62 K, Crystal 2): 121.99 ± 0.43 J/K/mol
molar heat capacity at constant pressure ([1]; 123.51 K, Crystal 2): 123.24 ± 0.43 J/K/mol
molar heat capacity at constant pressure ([1]; 125.33 K, Crystal 2): 124.71 ± 0.44 J/K/mol
molar heat capacity at constant pressure ([1]; 127.14 K, Crystal 2): 125.29 ± 0.44 J/K/mol
molar heat capacity at constant pressure ([1]; 128.86 K, Crystal 2): 126.35 ± 0.44 J/K/mol
molar heat capacity at constant pressure ([1]; 130.68 K, Crystal 2): 127.87 ± 0.45 J/K/mol
molar heat capacity at constant pressure ([1]; 132.5 K, Crystal 2): 128.63 ± 0.45 J/K/mol
molar heat capacity at constant pressure ([1]; 134.24 K, Crystal 2): 131.67 ± 0.46 J/K/mol
molar heat capacity at constant pressure ([1]; 135.97 K, Crystal 2): 132.68 ± 0.46 J/K/mol
molar heat capacity at constant pressure ([1]; 137.73 K, Crystal 2): 133.19 ± 0.46 J/K/mol
molar heat capacity at constant pressure ([1]; 139.48 K, Crystal 2): 134.44 ± 0.47 J/K/mol
molar heat capacity at constant pressure ([1]; 141.23 K, Crystal 2): 136.19 ± 0.47 J/K/mol
molar heat capacity at constant pressure ([1]; 142.86 K, Crystal 2): 137.59 ± 0.48 J/K/mol
molar heat capacity at constant pressure ([1]; 144.61 K, Crystal 2): 138.32 ± 0.48 J/K/mol
molar heat capacity at constant pressure ([1]; 146.3 K, Crystal 2): 140.73 ± 0.49 J/K/mol
molar heat capacity at constant pressure ([1]; 147.99 K, Crystal 2): 140.29 ± 0.48 J/K/mol
molar heat capacity at constant pressure ([1]; 149.61 K, Crystal 2): 141.98 ± 0.49 J/K/mol
molar heat capacity at constant pressure ([1]; 151.3 K, Crystal 2): 143.95 ± 0.5 J/K/mol
molar heat capacity at constant pressure ([1]; 152.96 K, Crystal 2): 145.69 ± 0.5 J/K/mol
molar heat capacity at constant pressure ([1]; 154.61 K, Crystal 2): 147.47 ± 0.51 J/K/mol
molar heat capacity at constant pressure ([1]; 156.3 K, Crystal 2): 148.86 ± 0.51 J/K/mol
molar heat capacity at constant pressure ([1]; 157.86 K, Crystal 2): 150.83 ± 0.52 J/K/mol
molar heat capacity at constant pressure ([1]; 159.54 K, Crystal 2): 152.22 ± 0.52 J/K/mol
molar heat capacity at constant pressure ([1]; 161.17 K, Crystal 2): 153.62 ± 0.52 J/K/mol
molar heat capacity at constant pressure ([1]; 162.73 K, Crystal 2): 154.86 ± 0.53 J/K/mol
molar heat capacity at constant pressure ([1]; 164.35 K, Crystal 2): 156.25 ± 0.53 J/K/mol
molar heat capacity at constant pressure ([1]; 165.91 K, Crystal 2): 156.39 ± 0.53 J/K/mol
molar heat capacity at constant pressure ([1]; 167.53 K, Crystal 2): 158.29 ± 0.54 J/K/mol
molar heat capacity at constant pressure ([1]; 169.09 K, Crystal 2): 159.91 ± 0.54 J/K/mol
molar heat capacity at constant pressure ([1]; 172.12 K, Crystal 2): 160.63 ± 0.55 J/K/mol
molar heat capacity at constant pressure ([1]; 176.29 K, Crystal 2): 162.82 ± 0.55 J/K/mol
molar heat capacity at constant pressure ([1]; 180.3 K, Crystal 2): 165.02 ± 0.56 J/K/mol
molar heat capacity at constant pressure ([1]; 184.22 K, Crystal 2): 166.35 ± 0.56 J/K/mol
molar heat capacity at constant pressure ([1]; 188.18 K, Crystal 2): 168.27 ± 0.57 J/K/mol
molar heat capacity at constant pressure ([1]; 191.97 K, Crystal 2): 170.46 ± 0.57 J/K/mol
molar heat capacity at constant pressure ([1]; 195.83 K, Crystal 2): 171.25 ± 0.58 J/K/mol
molar heat capacity at constant pressure ([1]; 199.61 K, Crystal 2): 172.21 ± 0.58 J/K/mol
molar heat capacity at constant pressure ([1]; 203.33 K, Crystal 2): 173.89 ± 0.58 J/K/mol
molar heat capacity at constant pressure ([1]; 207.04 K, Crystal 2): 175.99 ± 0.59 J/K/mol
molar heat capacity at constant pressure ([1]; 210.68 K, Crystal 2): 177.22 ± 0.59 J/K/mol
molar heat capacity at constant pressure ([1]; 214.32 K, Crystal 2): 179.68 ± 0.6 J/K/mol
molar heat capacity at constant pressure ([1]; 217.96 K, Crystal 2): 181.35 ± 0.61 J/K/mol
molar heat capacity at constant pressure ([1]; 221.51 K, Crystal 2): 183.72 ± 0.61 J/K/mol
molar heat capacity at constant pressure ([1]; 225 K, Crystal 2): 185.96 ± 0.62 J/K/mol
molar heat capacity at constant pressure ([1]; 228.51 K, Crystal 2): 187.72 ± 0.63 J/K/mol
molar heat capacity at constant pressure ([1]; 231.95 K, Crystal 2): 189.41 ± 0.63 J/K/mol
molar heat capacity at constant pressure ([1]; 235.39 K, Crystal 2): 192.26 ± 0.64 J/K/mol
molar heat capacity at constant pressure ([1]; 238.79 K, Crystal 2): 194.53 ± 0.65 J/K/mol
molar heat capacity at constant pressure ([1]; 242.04 K, Crystal 2): 198.57 ± 0.66 J/K/mol
molar heat capacity at constant pressure ([1]; 245.39 K, Crystal 2): 201.48 ± 0.67 J/K/mol
molar heat capacity at constant pressure ([1]; 248.7 K, Crystal 2): 203.61 ± 0.67 J/K/mol
molar heat capacity at constant pressure ([1]; 252.08 K, Crystal 2): 206.16 ± 0.68 J/K/mol
molar heat capacity at constant pressure ([1]; 255.46 K, Crystal 2): 208.87 ± 0.69 J/K/mol
molar heat capacity at constant pressure ([1]; 258.7 K, Crystal 2): 210.99 ± 0.7 J/K/mol
molar heat capacity at constant pressure ([1]; 262.01 K, Crystal 2): 212.53 ± 0.7 J/K/mol
molar heat capacity at constant pressure ([1]; 265.32 K, Crystal 2): 215.68 ± 0.71 J/K/mol
molar heat capacity at constant pressure ([1]; 268.57 K, Crystal 2): 217.65 ± 0.72 J/K/mol
molar heat capacity at constant pressure ([1]; 271.77 K, Crystal 2): 220.53 ± 0.73 J/K/mol
molar heat capacity at constant pressure ([1]; 275 K, Crystal 2): 224.17 ± 0.74 J/K/mol
molar heat capacity at constant pressure ([1]; 278.12 K, Crystal 2): 228.04 ± 0.75 J/K/mol
molar heat capacity at constant pressure ([1]; 281.3 K, Crystal 2): 231.99 ± 0.76 J/K/mol
molar heat capacity at constant pressure ([1]; 284.42 K, Crystal 2): 237.12 ± 0.78 J/K/mol
molar heat capacity at constant pressure ([1]; 287.53 K, Crystal 2): 241.14 ± 0.79 J/K/mol
molar heat capacity at constant pressure ([1]; 290.52 K, Crystal 2): 246.12 ± 0.8 J/K/mol
molar heat capacity at constant pressure ([1]; 293.51 K, Crystal 2): 256.15 ± 260 J/K/mol
molar heat capacity at constant pressure ([1]; 296.36 K, Crystal 2): 269.06 ± 270 J/K/mol
molar heat capacity at constant pressure ([1]; 299.17 K, Crystal 2): 287.71 ± 290 J/K/mol
molar heat capacity at constant pressure ([1]; 301.89 K, Crystal 2): 317.39 ± 320 J/K/mol
molar heat capacity at constant pressure ([1]; 304.46 K, Crystal 2): 360.73 ± 360 J/K/mol
molar heat capacity at constant pressure ([1]; 306.87 K, Crystal 2): 401.98 ± 400 J/K/mol
molar heat capacity at constant pressure ([1]; 309.17 K, Crystal 2): 438.39 ± 440 J/K/mol
molar heat capacity at constant pressure ([1]; 311.36 K, Crystal 2): 491.36 ± 490 J/K/mol
molar heat capacity at constant pressure ([1]; 318.51 K, Crystal 1): 314.18 ± 1 J/K/mol
molar heat capacity at constant pressure ([1]; 320.91 K, Crystal 1): 318.35 ± 1 J/K/mol
molar heat capacity at constant pressure ([1]; 323.31 K, Crystal 1): 325.56 ± 1.1 J/K/mol
molar heat capacity at constant pressure ([1]; 325.78 K, Crystal 1): 328.61 ± 1.1 J/K/mol
molar heat capacity at constant pressure ([1]; 328.18 K, Crystal 1): 335.06 ± 1.1 J/K/mol
molar heat capacity at constant pressure ([1]; 330.58 K, Crystal 1): 339.72 ± 1.1 J/K/mol
molar heat capacity at constant pressure ([1]; 332.99 K, Crystal 1): 345.04 ± 1.1 J/K/mol
molar heat capacity at constant pressure ([1]; 335.32 K, Crystal 1): 351.32 ± 1.1 J/K/mol
molar heat capacity at constant pressure ([1]; 337.66 K, Crystal 1): 358.41 ± 1.1 J/K/mol
molar heat capacity at constant pressure ([1]; 340.01 K, Crystal 1): 364.19 ± 1.2 J/K/mol
molar heat capacity at constant pressure ([1]; 342.27 K, Crystal 1): 369.83 ± 1.2 J/K/mol
molar heat capacity at constant pressure ([1]; 344.55 K, Crystal 1): 376.43 ± 1.2 J/K/mol
molar heat capacity at constant pressure ([1]; 346.82 K, Crystal 1): 381.43 ± 1.2 J/K/mol
molar heat capacity at constant pressure ([1]; 349.03 K, Crystal 1): 386.89 ± 1.2 J/K/mol
molar heat capacity at constant pressure ([1]; 351.17 K, Crystal 1): 394.15 ± 1.3 J/K/mol
molar heat capacity at constant pressure ([1]; 353.25 K, Crystal 1): 400.12 ± 1.3 J/K/mol
molar heat capacity at constant pressure ([1]; 355.33 K, Crystal 1): 406.54 ± 1.3 J/K/mol
molar heat capacity at constant pressure ([1]; 357.27 K, Crystal 1): 412.66 ± 1.3 J/K/mol
molar heat capacity at constant pressure ([1]; 359.16 K, Crystal 1): 419.26 ± 1.3 J/K/mol
molar heat capacity at constant pressure ([1]; 360.91 K, Crystal 1): 423.77 ± 1.4 J/K/mol
molar heat capacity at constant pressure ([1]; 362.53 K, Crystal 1): 426.99 ± 1.4 J/K/mol
molar heat capacity at constant pressure ([1]; 364.09 K, Crystal 1): 434.07 ± 1.4 J/K/mol
molar heat capacity at constant pressure ([1]; 365.32 K, Crystal 1): 439.39 ± 1.4 J/K/mol
molar heat capacity at constant pressure ([1]; 366.56 K, Crystal 1): 441.96 ± 1.4 J/K/mol
molar heat capacity at constant pressure ([1]; 367.66 K, Crystal 1): 446.63 ± 1.4 J/K/mol
molar heat capacity at constant pressure ([1]; 368.51 K, Crystal 1): 453.39 ± 1.5 J/K/mol
Molar enthalpy of transition or fusion [2]: 5.75 ± 0.06 kJ/mol
Triple point temperature [3]: 311.4 ± 0.4 K
